According to PMC8022998 (Biomacromolecules, 2020):

Target: TSPO (translocator protein (18 kDa)) (Oryctolagus cuniculus, UniProt G1SMF7)
Test: [3H]-PK11195 radioligand displacement, size exclusion desalting plates
Type: binding
Conditions: 1.2 nM [3H]-PK11195, 50 mM Tris-HCl pH 7.4, 30 min, room temperature; isolated mitochondria

Chain of TSPO (translocator protein (18 kDa)) (G1SMF7 229-397): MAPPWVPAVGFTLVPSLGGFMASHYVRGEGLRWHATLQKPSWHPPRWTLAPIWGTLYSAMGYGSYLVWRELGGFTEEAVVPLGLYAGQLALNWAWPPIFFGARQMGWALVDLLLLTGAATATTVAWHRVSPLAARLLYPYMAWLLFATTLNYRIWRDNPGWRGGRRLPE

IC50 [nM]	Compound
100 ± 20	CCN(CC)C(=O)Cc1c(-c2ccc(OCCn3cc(CO)nn3)cc2)nn2c(C)cc(C)nc12 [DPA-triazole]
5 ± 0.5	CCC(C)N(C)C(=O)c1cc2ccccc2c(-c2ccccc2Cl)n1 (centres unmarked) [PK11195]
